Assay results published in patent publication US20140087451A1, “ACOUSTIC WAVE (AW) SENSING DEVICES USING LIVE CELLS” (University of Massachusetts, priority 2010, published 2014).

What was measured:
[1] = system: HMVEC-L cells; assay: Commercial quartz crystal microbalance (QCM), 10 MHz fundamental frequency, equivalent prior experiments; type: cell-based, human
[2] = system: Human Microvascular Endothelial Cells derived from Lung (HMVEC-L); assay: Surface acoustic wave (SAW) device, 21 MHz, frequency and attenuation response of attached cells; type: cell-based; conditions: for sensitivity (frequency shift normalized to operating frequency and number of live attached cells): SAW 21 MHz
Procedure: An AT cut quartz wafer was prepared with electrodes for a surface acoustic wave (SAW) patterned on one side. The transmitting and receiving electrodes were composed of interdigitated (IDT) electrodes fabricated by lift off of gold deposited by electron beam evaporation. The IDTs were composed of 120 pairs of electrode fingers. This spacing corresponds to the wavelength of a SAW of 21 MHz. The sensing area between the IDTs was 20×8 mm. A 2 μm thick layer of poly(methylmethacrylate) (PMMA) was spin coated onto the surface of the SAW to serve as an insulating layer for the IDTs as well as a waveguide for the Love waves generated by the transmitting IDT.
The SAW was connected to an Agilent E5061B network analyzer, set up for transmission measurements (s12). Before liquid was added, the resonant frequency of 21 MHz was confirmed. Using Labview software, the resonant frequency and attenuation of the SAW was measured once per second during an experiment. A drop of cell media containing cells was placed in the sensing area allowing cells to attach, as described below.
The Human Microvascular Endothelial Cells derived from Lung (HMVEC-L) cell line was obtained from Lonza (Basel, Switzerland) and stock cultures were established and grown in media recommended by the manufacturers, at 37° C. in a humidity controlled incubator with 5% CO2, unless otherwise noted. The media used was EBM™-2, (CC-3156) (Lonza Basel, Switzerland) with EGM™-2-MV BulletKit™ (CC-3202) (Lonza Basel, Switzerland) containing hEGF, Hydrocortisone, GA-1000 (Gentamicin, Amphotericin-B), VEGE, hFGF-B, R3-IGF-1 and 5% FBS. The HMVEC-L cells were grown in 25 cm^2 rectangular canted neck cell culture flasks with vented caps (Corning Life Science, Lowell, Mass.), and re-fed every three days and passaged once a week using a 0.05% solution of trypsin:EGTA (Invitrogen, Carlsbad, Calif.) as stock cultures.
Two different treatments of the cells on the SAW device were carried out in separate experiments. […] All the solutions were stored at 4° C. in a refrigerator. Prior to cell plating onto the SAW device, the SAW device was cleaned by rinsing with distilled water and then UV sterilized for 30 min. After sterilization and further washing with water and Phosphate Buffered Saline (PBS), 50 μl of medium containing 20,000 HMVEC-L cells was added to the sensing area of the SAW device, which had been previously placed within a 150 mm diameter Petri dish. Smaller Petri dishes filled with reservoirs of media were placed around the central SAW device, in order to provide additional surface area for evaporation of water. The purpose of this arrangement, large volume and area reservoirs of iso-osmotic pressure media in the Petri dishes, was to prevent evaporative loss of water from the small volume of media covering the cells in the sensing area of the SAW device. The SAW device in the large covered Petri dish was located on the bench top in ambient air. The Petri dish cover was removed and cells were plated in media onto the sensing area surface of the SAW device and the HMVEC-L cells in the covered Petri dish were allowed to attach to the sensing area SAW device surface for 18 hr. Then, the media was changed with 50 μl fresh medium.

[3] = system: Human Mammary Epithelial Cells (HMECs); assay: QCM (10 MHz) fundamental and third overtone frequency shift with attached cells treated with growth factor; type: cell-based; conditions: bFGF 12.5 ng/ml final; 20,000 HMEC cells on 10 MHz QCM; 300 min after addition; FIG. 6
Excerpt: An AT cut 0.538″ diameter quartz disk with 100 nm thick gold electrodes was used for the piezoelectric medium in this experiment. A polydimethylsiloxane (PDMS) tube with an outer diameter of 0.4″ and an inner diameter of 0.3″ and 0.3″ high was attached to one side of the quartz disk for use as a reservoir for cell media. The quartz crystal was mounted in a HC35/U holder with silver epoxy bonding between the electrodes and the gold electrodes on the crystal.
The oscillator circuitry is a Colpitts oscillator, shown in FIG. 7, modified to enable the quartz to undergo shear wave oscillations under a liquid load. The thickness of the crystal is such that an unloaded crystal oscillating in air would operate at 10 MHz. The Colpitts oscillator was tuned to only amplify frequencies in the range of 10 MHz. A second class C amplifier operating as a frequency multiplier was connected to the ungrounded electrode of the quartz crystal. The multiplier was tuned to capture the crystal's third harmonic oscillations. The output of the multiplier and the voltage at the crystal were connected to the inputs of a two channel oscilloscope. The waveforms were digitally captured using Labview software and passed through a fast Fourier transform. The frequency of the signals were captured and recorded at one minute intervals, prior to and following addition of cells to the crystal surface. […]

[4] = system: HMECs; conditions: bFGF added to HMECs; cited from earlier work
[5] = system: its specific growth factor receptor; conditions: stated as 'has been shown'; cited from earlier work

[N-]=[N+]=[N-] [sodium azide, Sodium azide]
equivalent sensitivity ([1]; 50 mM azide experiment): 4.1×10^−9 /cell
change in Attenuation values ([2]; 50 mM sodium azide final, 20,000 HMVEC-L cells on SAW device, FIG. 11): approximately 8 dBm
increase in frequency ([2]; 50 mM sodium azide final, 20,000 HMVEC-L cells on SAW sensing area, 4 hr after addition, FIG. 11): about 17 kHz
sensitivity (frequency shift normalized to operating frequency and number of live attached cells) ([2]; 50 mM sodium azide experiment): 5.6×10^−8 /cell

bFGF: Basic human Fibroblast Growth Factor from Sigma, reconstituted in 50 mM Tris-HCl pH7.5
frequency shift of third overtone compared to the fundamental in response to the growth factor [3]: larger frequency shift
lag time of proliferative response (increase in thymidine incorporation) [4]: about 21 hr
time to bind and activate its specific growth factor receptor [5]: ≤ 8 min

trypsin
equivalent sensitivity ([1]; trypsinization experiment): 1×10^−8 /cell
abrupt increase in frequency ([2]; 0.05% trypsin:EGTA, cell release, 20,000 HMVEC-L cells on SAW sensing area, FIG. 12): about 60 kHz
sensitivity (frequency shift normalized to operating frequency and number of live attached cells) ([2]; Trypsin enzymatic removal experiment): 3.75×10^−7 /cell
